Read-outs that look alike come from different tables or passages of the source.
Tests used:
human CYP3A4 enzyme = human CYP3A4 enzyme (Homo sapiens (Human), UniProt P08684); test: CYP3A4 enzyme inhibitory activity (Vivid CYP3A4 Green screening kit)
Protocol: The inhibitory activity of compounds on human CYP3A4 enzyme was detected using a VIVID™ CYP3A4 GREEN SCRNING KIT reagent kit. The Vivid™ CYP450 screening kit includes a Vivid™ substrate, Vivid™ fluorescence standard, reaction buffer, Vivid™ regeneration system, NADP+ and CYP450 BACULOSOMES™ Plus reagent. Operations were performed following the instructions, and a blank control group was set up without adding any compounds.
The IC50 value of the compounds inhibiting human CYP3A4 enzyme was calculated using Graphpad Prism 7.00 software through the formula Y=100/(1+10^((Log IC50−X)*HillSlope)).

human platelets = test: Platelet viability test (CTG); assay type: cell-based; conditions: CTG after 24 h
Protocol: After 10 mL of platelet-rich plasma was added to 30 mL of ACD-A solution and uniformly mixed, centrifugation was performed at 1200 g, and the supernatant was discarded; 10 mL of ACD-A solution was added, resuspended, uniformly mixed, and centrifuged at 1200 g for 10 min, and the supernatant was discarded. 5 mL of HEPES-Tyrode's buffer containing 1 μM PGE1 and 0.2 U/mL apyrase was added, slightly inverted, and then centrifuged at 800 g for 5 min, and the supernatant was discarded. 10 mL of HEPES-Tyrode's buffer containing 1 μM PGE1 and 0.2 U/mL apyrase was added, resuspended, and centrifuged at 1000 g for 5 min, and the supernatant was discarded. 2 mL of HEPES-Tyrode's buffer containing 1 μM PGE1+10% FBS-resuspended platelets was added, 200 μL was taken into a centrifuge tube and diluted to 2 mL. Then it was diluted to 1, 0.8, 0.6, 0.4, 0.2, 0.1, 0.08, 0.06, 0.04, 0.02, 0.01 times, the volume was complemented to 100 μL, and 50 μL of CTG reagent was added to detect cell viability. The maximum valid dilution with a fluorescence value not exceeding […] was selected for dilution, 90 μL/well was connected to a 96-well cell plate for chemiluminescence detection. A compound was prepared with HEPES-Tyrode's buffer containing 1 μM of PGE1+10% FBS, and added to the cells, which was gently beaten evenly and detected for cell viability by adding 50 μL CTG after 24 h.

BCL-XL = BCL-XL (Homo sapiens (Human), UniProt Q07817); test: BCL-XL enzyme molecular level activity test (HTRF, binding to BIM peptide); conditions: binding of BCL-XL to BIM peptide, read-out: BCL-XL inhibitory activity (IC50)
Method in brief: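 HTRF binding assay: His-tagged recombinant BCL-XL with biotin-BIM peptide and compound (2% DMSO), 1 h. Anti-His and streptavidin-XL665 detection reagents added, 4 h at room temperature. Excitation 320 nm; 665/615 nm ratio reflects binding, with no-protein background and no-compound full-binding controls.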

RS4; 11 cells = test: Tumor proliferation inhibitory activity test (MTS) on RS4; 11; assay type: cell-based; conditions: Homo sapiens, RS4-11, 72 h, 3 days incubation
Method in brief: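 RS4;11 cells were exposed to serially diluted compound (0.2% DMSO control) for 3 days at 37 °C/5% CO2, followed by MTS for 3–4 h. Read-out was OD490−OD690, and inhibition was calculated relative to the DMSO and blank wells.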

BCL2 (G101V) = BCL2 (G101V) (Homo sapiens (Human), UniProt P10415, G101V); test: Molecular level activity test of anti-apoptotic protein BCL2 (G101V) (HTRF, binding to Bim peptide); conditions: inhibition of BCL2 (G101V) binding to Bim peptide, read-out: BCL-2 (G101V)
Method in brief: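 His-tagged recombinant BCL2 (G101V) incubated 1 h with biotin-BIM peptide and compound (2% DMSO), then anti-His and streptavidin-XL665 detection reagents added for 4 h at room temperature. HTRF signal reflects compound effect on BCL2–BIM binding.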

BCL2 (D103Y) = BCL2 (D103Y) (Homo sapiens (Human), UniProt P10415, D103Y); test: Molecular level activity test of BCL2 (D103Y) (HTRF, binding to Bim peptide); conditions: read-out: BCL-2 (D103Y) (nM) (inhibitory activity, IC50)
Method in brief: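 His-tagged recombinant protein mixed with biotinylated BIM peptide and compound (2% DMSO), reacted 1 h. Anti-His and streptavidin-XL665 detection reagents then added and incubated 4 h at room temperature before HTRF read-out of binding inhibition.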

BCL2 = BCL2 (Homo sapiens (Human), UniProt P10415); test: Molecular level activity test of anti-apoptotic protein BCL2 (HTRF, binding to Bim peptide); conditions: HTRF, binding of BCL2 to Bim peptide; read-out: BCL2 nM (inhibitory activity, IC50)
Method in brief: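 HTRF readout; His-BCL2 + biotin-BIM peptide + cpd (2% DMSO in compound addition), 1 h; then anti-His + SA-XL665 detection reagents, 4 h RT.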

[1] = read-out: CYP3A4 (IC50), Vivid CYP3A4 Green screening kit

Sequence of BCL-XL (Q07817 whole entry): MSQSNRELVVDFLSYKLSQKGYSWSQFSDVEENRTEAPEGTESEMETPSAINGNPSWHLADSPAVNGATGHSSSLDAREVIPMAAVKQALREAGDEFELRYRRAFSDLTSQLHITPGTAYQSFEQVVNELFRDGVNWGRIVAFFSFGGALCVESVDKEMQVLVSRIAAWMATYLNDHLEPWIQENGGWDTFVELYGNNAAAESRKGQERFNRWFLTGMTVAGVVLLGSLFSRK
Sequence of human CYP3A4 enzyme (P08684 whole entry): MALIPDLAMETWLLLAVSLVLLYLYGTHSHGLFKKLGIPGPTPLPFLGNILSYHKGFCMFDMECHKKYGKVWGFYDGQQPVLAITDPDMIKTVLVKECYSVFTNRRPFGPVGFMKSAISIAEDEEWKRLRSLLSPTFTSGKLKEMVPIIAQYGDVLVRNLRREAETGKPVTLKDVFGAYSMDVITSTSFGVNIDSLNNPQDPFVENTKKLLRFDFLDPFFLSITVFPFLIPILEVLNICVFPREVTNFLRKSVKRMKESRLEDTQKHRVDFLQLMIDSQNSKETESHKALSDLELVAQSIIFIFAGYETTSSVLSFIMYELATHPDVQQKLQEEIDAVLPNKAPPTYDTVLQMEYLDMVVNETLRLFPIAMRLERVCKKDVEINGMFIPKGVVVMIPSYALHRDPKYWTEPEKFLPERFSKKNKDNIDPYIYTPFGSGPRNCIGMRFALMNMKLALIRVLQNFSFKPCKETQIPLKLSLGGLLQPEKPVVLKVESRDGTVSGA

| Compound | IC50 (human CYP3A4 enzyme) | IC50 (human platelets) | IC50 (BCL-XL; values in nM) | IC50 (RS4; 11 cells) | IC50 (BCL2 (G101V)) | IC50 (BCL2 (D103Y)) | IC50 (human CYP3A4 enzyme; [1]) | IC50 (BCL-XL; values given in μM) | IC50 (BCL2) |
| --- | --- | --- | --- | --- | --- | --- | --- | --- | --- |
| CC(C)c1ccccc1[C@@H]1CN(Cc2ccc(F)c(F)c2)CCN1C1CC2(CCN(c3cc(Oc4cnc5[nH]ccc5c4)c(C(=O)NS(=O)(=O)c4ccc(NCC5(F)CCOCC5)c([N+](=O)[O-])c4)cc3F)CC2)C1 [compound 190, (R)-2-((1H-pyrrolo[2,3-b]pyrid-5-yl)oxy)-4-(2-(4-(3,4-difluorobenzyl)-2-(2-isopropylphenyl)piperazin-1-yl)-7-azaspiro[3.5]non-7-yl)-5-fluoro-N-((4-(((4-fluorotetrahydro-2H-pyran-4-yl)methyl)amino)-3-nitrophenyl)sulfonyl)benzamide] | > 20 µM | > 5 µM | > 500 nM | < 0.0005 µM | < 0.01 µM | < 10 nM | – | – | – |
| COc1ccc(CN2CCN(C3CC4(CCN(c5cc(Oc6cnc7[nH]ccc7c6)c(C(=O)NS(=O)(=O)c6ccc(NCC7(F)CCOCC7)c([N+](=O)[O-])c6)cc5F)CC4)C3)[C@H](c3ccccc3C(C)C)C2)cc1OC [compound 197, (R)-2-((1H-pyrrolo[2,3-b]pyrid-5-yl)oxy)-4-(2-(4-(3,4-dimethoxybenzyl)-2-(2-isopropylphenyl)piperazin-1-yl)-7-azaspiro[3.5]non-7-yl)-5-fluoro-N-((4-(((4-fluorotetrahydro-2H-pyran-4-yl)methyl)amino)-3-nitrophenyl)sulfonyl)benzamide] | – | > 5 µM | – | < 0.0005 µM | < 0.01 µM | < 10 nM | > 20 µM | > 1000 nM | < 0.01 µM |
| CC(C)c1ccccc1[C@@H]1CN(Cc2cnn(C)c2)CCN1C1CC2(CCN(c3cc(Oc4cnc5[nH]ccc5c4)c(C(=O)NS(=O)(=O)c4ccc(NCC5(F)CCOCC5)c([N+](=O)[O-])c4)cc3F)CC2)C1 [compound 209, (R)-2-((1H-pyrrolo[2,3-b]pyrid-5-yl)oxy)-5-fluoro-N-((4-(((4-fluorotetrahydro-2H-pyran-4-yl)methyl)amino)-3-nitrophenyl)sulfonyl)-4-(2-(2-(2-isopropylphenyl)-4-((1-methyl-1H-pyrazole-4-yl)methyl)piperazin-1-yl)-7-azaspiro[3.5]non-7-yl)benzamide] | – | > 5 µM | – | < 0.0005 µM | < 0.01 µM | < 10 nM | > 20 µM | 1900 nM | < 0.01 µM |
| COc1ccc(CN2CCN(C3CC4(CCN(c5cc(Oc6cnc7[nH]ccc7c6)c(C(=O)NS(=O)(=O)c6ccc(NCC7(F)CCOCC7)c([N+](=O)[O-])c6)cc5F)CC4)C3)[C@H](c3ccccc3C(C)C)C2)cn1 [compound 242, (R)-2-((1H-pyrrolo[2,3-b]pyrid-5-yl)oxy)-5-fluoro-N-((4-(((4-fluorotetrahydro-2H-pyran-4-yl)methyl)amino)-3-nitrophenyl)sulfonyl)-4-(2-(2-(2-isopropylphenyl)-4-((6-methoxypyrid-3-yl)methyl)piperazin-1-yl)-7-azaspiro[3.5]non-7-yl)benzamide] | – | > 5 µM | > 500 nM | < 0.0005 µM | < 0.01 µM | < 10 nM | > 20 µM | – | < 0.01 µM |

— US20250034135A1, “ANTI-APOPTOTIC PROTEIN BCL-2 INHIBITOR, PHARMACEUTICAL COMPOSITION AND USES THEREOF” (HANGZHOU HEALZEN THERAPEUTICS CO., LTD., priority 2021, published 2025)
